Source: patent US12617762B2, “Carboxy derivatives with antiinflamatory properties” (Sitryx Therapeutics Limited, priority 2019, dated 2026)
Structures can show the parent of a compound that is named as a salt. Where two headings read alike, the source gives them in different places.

Columns and labels:
[1] = test system: IL-1β cytokine output from THP-1s; experiment: THP-1 AlphaLISA IL-1β cytokine inhibition assay; assay type: cell-based; conditions: for IC50: LPS then nigericin; for IL-1β lowering, result in words: THP-1 IL-1β assay
Method: Measuring Inhibitory Effects on IL-1β Cytokine Output from THP-1s
The cytokine inhibition profiles of compounds of formula (I) were determined in a differentiated THP-1 cell assay. All assays were performed in RPMI-1640 growth medium (Gibco), supplemented with 10% fetal bovine serum (FBS; Gibco), 1% penicillin-streptomycin and 1% sodium pyruvate unless specified otherwise. The IL-1β cytokine inhibition assay was run in a background of differentiated THP-1 cells as described below. All reagents described were from Sigma-Aldrich unless specified otherwise. Compounds were prepared as 10 mM DMSO stocks.
THP-1 cells were expanded as a suspension up to 80% confluence in appropriate growth medium. Cells were harvested, suspended, and treated with an appropriate concentration of phorbol 12-myristate 13-acetate (PMA) over a 72 hr period (37° C./5% CO2).
Following 72 hrs of THP-1 cell incubation, cellular medium was removed and replaced with fresh growth media containing 1% of FBS. Working concentrations of compounds were prepared separately in 10% FBS treated growth medium and pre-incubated with the cells for 30 minutes (37° C./5% CO2). Following the 30 minute compound pre-incubation, THP-1s were treated with an appropriate concentration of LPS and the cells were subsequently incubated for a 24 hr period (37° C./5% CO2). An appropriate final concentration of Nigericin was then dispensed into the THP-1 plates and incubated for 1 hour (37° C./5% CO2) before THP-1 supernatants were harvested and collected in separate polypropylene 96-well holding plates.
Reagents from an IL-1β and IL-6 commercial kit (Perkin Elmer) were prepared and run according to the manufacturer's instructions. Subsequently, fluorescence signal detection in a microplate reader was measured (EnVision® Multilabel Reader, Perkin Elmer).
Percentage inhibition was calculated per cytokine by normalising the sample data to the high and low controls used within each plate (+/− LPS respectively).

[2] = test system: NRF2 (nuclear factor erythroid 2-related factor 2); experiment: NRF2 +/-GSH activation assay (DiscoverX PathHunter NRF2 translocation kit, U2OS cells); assay type: cell-based; conditions: for NRF2 activation +GSH Emax / NRF2 activation −GSH Emax: normalised to DMF high control
Method: Measuring Compound Activation Effects on the Anti-Inflammatory Transcription Factor NRF2 in DiscoverX PathHunter NRF2 Translocation Kit
Potency and efficacy of compounds of formula (I) against the target of interest to activate NRF2 (nuclear factor erythroid 2-related factor 2) were determined using the PathHunter NRF2 translocation kit (DiscoverX). The NRF2 translocation assay was run using an engineered recombinant cell line, utilising enzyme fragment complementation to determine activation of the Keap1-NRF2 protein complex and subsequent translocation of NRF2 into the nucleus. Enzyme activity was quantified using a chemiluminescent substrate consumed following the formation of a functional enzyme upon PK-tagged NRF2 translocation into the nucleus.
The assay was run under both +/−GSH (glutathione) conditions to determine the sensitivity of the compounds' NRF2-activating abilities to attenuation by GSH.
Additionally, a defined concentration of DMF was used as the ‘High’ control to normalise test compound activation responses to.
U2OS PathHunter eXpress cells were thawed from frozen prior to plating. Following plating, U2OS cells were incubated for 24 hrs (37° C./5% CO2) in commercial kit provided cell medium.
Following 24 hrs of U2OS incubation, cells were directly treated with an appropriate final concentration of compound, for −GSH conditions or, for +GSH conditions, an intermediate plate containing 6× working concentrations of compound stocks was prepared in a 6 mM working concentration of GSH solution (solubilised in sterile PBS). Following a 30 minute compound-GSH pre-incubation (37° C./5% CO2) for +GSH treatment, plated U2OS cells were incubated with an appropriate final concentration of compound and GSH.
Following compound (+/−GSH) treatment, the U2OS plates were incubated for a further 6 hours (37° C./5% CO2) before detection reagent from the PathHunter NRF2 commercial kit was prepared and added to test plates according to the manufacturer's instructions. Subsequently, the luminescence signal detection was measured in a microplate reader (PHERAstar®, BMG Labtech).
Percentage activation was calculated by normalising the sample data to the high and low controls used within each plate (+/−DMF).

[3] = Homo sapiens, THP-1, differentiated THP-1 cells
[4] = +GSH, 30 minute compound-GSH pre-incubation, read-out: NRF2 activation +GSH EC50
[5] = −GSH, U2OS PathHunter cells, 6 hours compound treatment, read-out: NRF2 activation −GSH EC50

| Compound | IC50 [1, 3] [µM] | EC50 [2, 4] [µM] | NRF2 activation +GSH Emax ([2]; +GSH) [%] | EC50 [2, 5] [µM] | NRF2 activation −GSH Emax ([2]; −GSH) [%] | IC50 ([1]; differentiated THP-1 cells) [µM] | IL-1β lowering, result in words [1] |
| --- | --- | --- | --- | --- | --- | --- | --- |
| C=C(Cc1nc(-c2ccc(OCCCC)c(C(F)(F)F)c2)no1)C(=O)O [Example 161, 2-((3-(4-butoxy-3-(trifluoromethyl)phenyl)-1,2,4-oxadiazol-5-yl)methyl)acrylic acid] | > 10 | 7.2 | 114 | 25.1 | 258 | – | – |
| C=C(Cc1nc(-c2ccc(OC3CCCC3)cc2)no1)C(=O)O [Example 143, 2-((3-(4-cyclopentyloxyphenyl)-1,2,4-oxadiazol-5-yl)methyl)acrylic acid] | 22.1 | 14.5 | 195 | 12 | 243 | – | – |
| C=C(Cc1nc(-c2ccc(OC(C)CC)cc2)no1)C(=O)O (stereo in doubt) [Example 145, (S)-2-((3-(4-(sec-butoxy)phenyl)-1,2,4-oxadiazol-5-yl)methyl)acrylic acid] | – | 31.4 | 135 | 28.4 | 170 | 35.6 | – |
| C=C(Cc1nc(C2(c3ccccc3Cl)CC2)no1)C(=O)O [Example 24, 2-((3-(1-(2-chlorophenyl)cyclopropyl)-1,2,4-oxadiazol-5-yl)methyl)acrylic acid] | > 100 | > 100 | 17 | 42.4 | 57 | – | not effective |
| C=C(Cc1nc(Cc2ccc(C(F)(F)F)c(Cl)c2)no1)C(=O)O [Example 137, 2-((3-(3-chloro-4-(trifluoromethyl)benzyl)-1,2,4-oxadiazol-5-yl)methyl)acrylic acid] | 60.5 | – | – | – | – | – | – |
| C=C(Cc1nc(CCCC)c(CCCC)o1)C(=O)O [Example 123, 2-((4,5-dibutyloxazol-2-yl)methyl)acrylic acid] | > 100 | 62.4 | 42 | 6.6 | 111 | – | – |
| C=C(Cc1nc(Cc2ccc(OC)c(Cl)c2)no1)C(=O)O [Example 163, 2-((3-(3-chloro-4-methoxybenzyl)-1,2,4-oxadiazol-5-yl)methyl)acrylic acid] | > 100 | > 100 | −10 | 61.4 | 61 | – | – |
| COC(=O)/C=C/C(=O)OC [dimethyl fumarate, reference compound] | – | > 100 | 20 | 6.1 | 100 | – | – |
| C=C(Cc1nc(C2CCc3c(Cl)cc(Cl)cc32)no1)C(=O)O (centres unmarked) [Example 148, 2-((3-(4,6-dichloro-2,3-dihydro-1H-inden-1-yl)-1,2,4-oxadiazol-5-yl)methyl)acrylic acid] | 42.6 | – | – | – | – | – | – |
| C=C(Cc1nc(Cc2cc(F)c(Cl)c(F)c2)no1)C(=O)O [Example 164, 2-((3-(4-chloro-3,5-difluorobenzyl)-1,2,4-oxadiazol-5-yl)methyl)acrylic acid] | > 100 | 63.4 | 5.5 | 42.7 | 62 | – | – |
| C=C(Cc1nc(CCCc2ccc(Cl)cc2)no1)C(=O)O [Example 33, 2-((3-(3-(4-chlorophenyl)propyl)-1,2,4-oxadiazol-5-yl)methyl)acrylic acid] | 83.5 | 23.3 | 160 | 18.3 | 150 | – | – |
| C=C(Cc1nc(-c2ccc(OCCCC)c(Cl)c2)no1)C(=O)O [Example 160, 2-((3-(4-butoxy-3-chlorophenyl)-1,2,4-oxadiazol-5-yl)methyl)acrylic acid] | > 10 | 4.1 | 238 | 5 | 216 | – | – |
| C=C(Cc1nc(C2CCCCC2)no1)C(=O)O [Example 64, 2-((3-cyclohexyl-1,2,4-oxadiazol-5-yl)methyl)acrylic acid] | > 100 | > 100 | 17 | > 100 | 86 | – | not effective |
| C=C(Cc1nc(Cc2ccc(C)c(Cl)c2)no1)C(=O)O [Example 165, 2-((3-(3-chloro-4-methylbenzyl)-1,2,4-oxadiazol-5-yl)methyl)acrylic acid] | > 100 | > 100 | 16 | > 100 | 25 | – | – |
| C=C(Cc1nc(-c2ccc(OCCCOC)cc2)no1)C(=O)O [Example 159, 2-((3-(4-(3-methoxypropoxy)phenyl)-1,2,4-oxadiazol-5-yl)methyl)acrylic acid] | > 100 | 39.9 | 85 | 34.4 | 87 | – | – |
| C=C(Cc1noc(C2(c3ccc(OC(F)(F)F)cc3)CC2)n1)C(=O)O [Example 99, 2-((5-(1-(4-(trifluoromethoxy)phenyl)cyclopropyl)-1,2,4-oxadiazol-3-yl)methyl)acrylic acid] | 52.3 | – | – | – | – | – | – |
| C=C(Cc1nc(-c2ccc(I)cc2)no1)C(=O)O [Example 119, 2-((3-(4-iodophenyl)-1,2,4-oxadiazol-5-yl)methyl)acrylic acid] | 59.6 | – | – | – | – | – | – |
| C=C(Cc1nc(-c2ccc(N3CCCC3)cc2)no1)C(=O)O [Example 132, 2-((3-(4-(pyrrolidin-1-yl)phenyl)-1,2,4-oxadiazol-5-yl)methyl)acrylic acid] | 29.9 | – | – | – | – | – | – |
| C=C(Cc1nc(C(F)c2ccc(Cl)cc2)no1)C(=O)O (centres unmarked) [Example 152, 2-((3-((4-chlorophenyl)fluoromethyl)-1,2,4-oxadiazol-5-yl)methyl)acrylic acid] | 36.4 | – | – | – | – | – | – |
| C=C(Cc1nc(C2(c3ccc(OC4CC4)cc3)CC2)no1)C(=O)O [Example 114] | 55.2 | – | – | – | – | – | – |
| C=C(Cc1nc(-c2ccc(OCCC)cc2)no1)C(=O)O [Example 149, 2-((3-(4-propoxyphenyl)-1,2,4-oxadiazol-5-yl)methyl)acrylic acid] | 50 | – | – | – | – | – | – |
| C=C(Cc1nc(Cc2ccc(Br)c(Cl)c2)no1)C(=O)O [Example 139, 2-((3-(4-bromo-3-chlorobenzyl)-1,2,4-oxadiazol-5-yl)methyl)acrylic acid] | 41.1 | – | – | – | – | – | – |
| C=C(Cc1nc(C2(c3ccc(S(=O)(=O)C(F)(F)F)cc3)CC2)no1)C(=O)O [Example 122, 2-((3-(1-(4-((trifluoromethyl)sulfonyl)phenyl)cyclopropyl)-1,2,4-oxadiazol-5-yl)methyl)acrylic acid] | 75.5 | – | – | – | – | – | – |
| C=C(Cc1nc(Oc2ccc(CCCC)cc2)no1)C(=O)O [Example 126, 2-((3-(4-butylphenoxy)-1,2,4-oxadiazol-5-yl)methyl)acrylic acid] | 32.1 | – | – | – | – | – | – |
| C=C(Cc1nc(-c2ccc(S(F)(F)(F)(F)F)cc2)no1)C(=O)O [Example 121, 2-((3-(4-(pentafluoro-λ^6-sulfaneyl)phenyl)-1,2,4-oxadiazol-5-yl)methyl)acrylic acid] | 61.8 | – | – | – | – | – | – |
| C=C(Cc1nc(C(F)(F)c2ccc(OC)c(Cl)c2)no1)C(=O)O [Example 150, 2-((3-((3-chloro-4-methoxyphenyl)difluoromethyl)-1,2,4-oxadiazol-5-yl)methyl)acrylic acid] | 52.7 | – | – | – | – | – | – |
| C=C(Cc1nc(-c2ccc(Br)cc2)no1)C(=O)O [Example 118, 2-((3-(4-bromophenyl)-1,2,4-oxadiazol-5-yl)methyl)acrylic acid] | 59.6 | – | – | – | – | – | – |
